Results reported in patent US20060089378A1 (priority 2004, published 2006).
Like-named read-outs stand apart in the source and are kept apart here.

Assays:
[1] = target: T1, Cannabinoid CB2 Receptor (Homo sapiens, UniProt P34972); assay: Binding assay for CB2 agonists or inverse agonists (radioligand competition, membranes of transfected SK-N-MC cells); settings: for inhibition at 0.2 µM: read-out: Cannabinoid CB2 Receptor Binding percent inhibition
T1 construct: expressed in transfected cells

[2] = target: T2, Cannabinoid CB1 Receptor (Homo sapiens, UniProt P21554); assay: Binding assay for CB1 agonists or inverse agonists (radioligand competition, membranes of transfected SK-N-MC cells); settings: for inhibition at 0.2 µM: read-out: Cannabinoid CB1 Receptor Binding percent inhibition
T2 construct: expressed in transfected cells
T2 sequence (P21554 whole entry): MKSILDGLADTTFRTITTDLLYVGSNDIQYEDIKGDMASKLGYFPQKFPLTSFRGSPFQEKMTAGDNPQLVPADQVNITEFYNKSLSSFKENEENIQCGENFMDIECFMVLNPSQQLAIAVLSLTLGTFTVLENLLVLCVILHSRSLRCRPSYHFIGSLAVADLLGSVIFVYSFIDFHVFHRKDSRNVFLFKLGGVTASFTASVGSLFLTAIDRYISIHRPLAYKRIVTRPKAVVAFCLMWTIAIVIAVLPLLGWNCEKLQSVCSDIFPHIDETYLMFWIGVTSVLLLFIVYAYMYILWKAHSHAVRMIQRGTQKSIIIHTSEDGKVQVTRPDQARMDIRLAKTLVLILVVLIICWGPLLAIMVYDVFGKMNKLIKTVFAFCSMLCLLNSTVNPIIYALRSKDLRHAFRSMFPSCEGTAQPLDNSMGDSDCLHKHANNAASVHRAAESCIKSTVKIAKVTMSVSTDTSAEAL

[3] = target: CB1 receptor (human) (Homo sapiens, UniProt P21554); assay: cell-based; settings: for CB1 Receptor Functional Activity (change in functional activity, CRE β-gal): one compound concentration, β-galactosidase activity relative to vehicle treated cells
CB1 receptor (human), sequence (P21554 whole entry): as above

[4] = test concentration of 0.2 μM, compounds without an IC50 binding value

T1 sequence (P34972 whole entry): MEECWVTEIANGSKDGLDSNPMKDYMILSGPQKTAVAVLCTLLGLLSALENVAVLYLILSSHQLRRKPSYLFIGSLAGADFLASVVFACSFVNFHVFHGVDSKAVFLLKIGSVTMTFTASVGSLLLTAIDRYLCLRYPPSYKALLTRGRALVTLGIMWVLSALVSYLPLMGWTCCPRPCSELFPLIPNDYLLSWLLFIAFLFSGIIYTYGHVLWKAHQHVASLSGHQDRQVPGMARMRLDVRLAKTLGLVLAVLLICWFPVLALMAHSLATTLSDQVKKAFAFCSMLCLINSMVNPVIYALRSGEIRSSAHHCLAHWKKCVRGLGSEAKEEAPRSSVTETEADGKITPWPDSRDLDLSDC

In the case of CC(NC(=O)c1nn(-c2ccc(Cl)cc2Cl)c2c1CNC/C2=C\c1ccc(F)cc1)c1ccccn1 (stereo not drawn) [Cpd 21, (7E)-1-(2,4-dichloro-phenyl)-7-(4-fluoro-benzylidene)-4,5,6,7-tetrahydro-1H-pyrazolo[4,3-c]pyridine-3-carboxylic acid (1-pyridin-2-yl-ethyl)-amide], the inhibition at 0.2 µM [1] is reported as 5%, the IC50 [2] is reported as 50 nM and the EC50 [3] is reported as 70 nM.
With CC(NC(=O)c1nn(-c2ccc(Cl)cc2Cl)c2c1CN(C(=O)OCc1ccccc1)C/C2=C\c1ccc(F)cc1)c1ccccn1 (stereo not drawn) [Cpd 25, (7E)-1-(2,4-dichloro-phenyl)-7-(4-fluoro-benzylidene)-3-(1-pyridin-2-yl-ethylcarbamoyl)-1,4,6,7-tetrahydro-pyrazolo[4,3-c]pyridine-5-carboxylic acid benzyl ester] the inhibition at 0.2 µM [1] was 17%, the IC50 [2] was 50 nM and the EC50 [3] was 90 nM.
COc1ccc(/C=C2\CN(C=O)Cc3c(C(=O)N[C@H](C)c4ccccc4)nn(-c4ccc(Cl)cc4Cl)c32)cc1 [Cpd 45, (7E)-1-(2,4-dichloro-phenyl)-5-formyl-7-(4-methoxy-benzylidene)-4,5,6,7-tetrahydro-1H-pyrazolo[4,3-c]pyridine-3-carboxylic acid [(1R)-1-phenyl-ethyl]-amide] showed an inhibition at 0.2 µM [1] of 45%, an IC50 [2] of 3 nM and an EC50 [3] of 0.1 nM.
COC(=O)CN1CCc2c(c(C(=O)NC3C4(C)CCC(C4)C3(C)C)nn2C2CCCCC2)C1 (stereo not drawn) [Cpd 128, [1-cyclohexyl-3-(1,3,3-trimethyl-bicyclo[2.2.1]hept-2-ylcarbamoyl)-1,4,6,7-tetrahydro-pyrazolo[4,3-c]pyridin-5-yl]-acetic acid methyl ester] was tested, and the IC50 ([1]; human CB2, SK-N-MC cell membranes, calculated by linear regression from percent inhibition at various concentrations, read-out: Cannabinoid CB2 Receptor Binding IC50) was 400 nM, the IC50 ([2]; human CB1, SK-N-MC cell membranes, calculated by linear regression from percent inhibition at various concentrations, read-out: Cannabinoid CB1 Receptor Binding IC50) was 700 nM and the “CB1 Receptor Functional Activity (change in functional activity, CRE β-gal)” value [3] was −7%.
Work on CC(NC(=O)c1nn(-c2ccc(Cl)cc2Cl)c2c1CN(S(C)(=O)=O)C/C2=C\c1ccc(F)cc1)c1ccccn1 (stereo not drawn) [Cpd 27, (7E)-1-(2,4-dichloro-phenyl)-7-(4-fluoro-benzylidene)-5-methanesulfonyl-4,5,6,7-tetrahydro-1H-pyrazolo[4,3-c]pyridine-3-carboxylic acid (1-pyridin-2-yl-ethyl)-amide] yielded an inhibition at 0.2 µM [1] of 16%, an IC50 [2] of 5 nM and an EC50 [3] of 6 nM.
CC(=O)N1C/C(=C\c2ccc(F)cc2)c2c(c(C(=O)N[C@H](C)c3ccccc3)nn2-c2ccc(Cl)cc2)C1 [Cpd 68, (7E)-5-acetyl-1-(4-chloro-phenyl)-7-(4-fluoro-benzylidene)-4,5,6,7-tetrahydro-1H-pyrazolo[4,3-c]pyridine-3-carboxylic acid [(1R)-1-phenyl-ethyl]-amide] showed an inhibition at 0.2 µM [1] of 11%, an IC50 [2] of 20 nM and an EC50 [3] of 3 nM.
In the case of O=C(NN1CCCCC1)c1nn(-c2ccc(Cl)cc2Cl)c2c1CNC/C2=C\c1ccc(F)cc1 [Cpd 12, (7E)-1-(2,4-dichloro-phenyl)-7-(4-fluoro-benzylidene)-4,5,6,7-tetrahydro-1H-pyrazolo[4,3-c]pyridine-3-carboxylic acid piperidin-1-ylamide], the inhibition at 0.2 µM [1] is reported as 5%, the IC50 [2] is reported as 100 nM and the EC50 [3] is reported as 80 nM.
CC(=O)N1C/C(=C\c2ccc(F)cc2)c2c(c(C(=O)NC(C)c3ccccn3)nn2-c2ccc(Cl)cc2)C1 (stereo not drawn) [Cpd 80, (7E)-5-acetyl-1-(4-chloro-phenyl)-7-(4-fluoro-benzylidene)-4,5,6,7-tetrahydro-1H-pyrazolo[4,3-c]pyridine-3-carboxylic acid (1-pyridin-2-yl-ethyl)-amide] showed an inhibition at 0.2 µM [1] of 0%, an IC50 [2] of 100 nM and an EC50 [3] of 9 nM.
With Cc1ccc(S(=O)(=O)N2C/C(=C\c3ccc(F)cc3)c3c(c(C(=O)N[C@H](C)C4CCCCC4)nn3-c3ccc(Cl)cc3Cl)C2)cc1 [Cpd 31, (7E)-1-(2,4-dichloro-phenyl)-7-(4-fluoro-benzylidene)-5-(toluene-4-sulfonyl)-4,5,6,7-tetrahydro-1H-pyrazolo[4,3-c]pyridine-3-carboxylic acid [(1R)-1-cyclohexyl-ethyl]-amide] the “Cannabinoid CB2 Receptor Binding percent inhibition” value [1, 4] was 29%, the IC50 [2] was 30 nM and the EC50 [3] was 1100 nM.
C[C@@H](NC(=O)c1nn(-c2ccc(Cl)cc2Cl)c2c1CN(C(=O)OC(C)(C)C)C/C2=C\c1ccc(F)cc1)c1ccccn1 [Cpd 138, (7E)-1-(2,4-dichloro-phenyl)-7-(4-fluoro-benzylidene)-3-[(1R)-1-pyridin-2-yl-ethylcarbamoyl]-1,4,6,7-tetrahydro-pyrazolo[4,3-c]pyridine-5-carboxylic acid tert-butyl ester] showed an inhibition at 0.2 µM [1] of 21%, an IC50 [2] of 30 nM and an EC50 [3] of 9 nM.
COc1ccc(/C=C2\CN(S(C)(=O)=O)Cc3c(C(=O)N[C@H](C)c4ccccc4)nn(-c4ccc(Cl)cc4Cl)c32)cc1 [Cpd 40, (7E)-1-(2,4-dichloro-phenyl)-5-methanesulfonyl-7-(4-methoxy-benzylidene)-4,5,6,7-tetrahydro-1H-pyrazolo[4,3-c]pyridine-3-carboxylic acid [(1R)-1-phenyl-ethyl]-amide] showed an inhibition at 0.2 µM [1] of 47%, an IC50 [2] of 2 nM and an EC50 [3] of 1 nM.
For C[C@@H](NC(=O)c1nn(-c2ccc(Cl)cc2Cl)c2c1CNC/C2=C\c1ccc(F)cc1)c1ccccn1 [Cpd 139, (7E)-1-(2,4-dichloro-phenyl)-7-(4-fluoro-benzylidene)-4,5,6,7-tetrahydro-1H-pyrazolo[4,3-c]pyridine-3-carboxylic acid [(1R)-1-pyridin-2-yl-ethyl]-amide], the inhibition at 0.2 µM [1] was 16%, the IC50 [2] was 40 nM and the EC50 [3] was 30 nM.
In the case of CC(=O)N1CCc2c(c(C(=O)NC3C4(C)CCC(C4)C3(C)C)nn2-c2ccccc2)C1 (stereo not drawn) [Cpd 112, 5-acetyl-1-phenyl-4,5,6,7-tetrahydro-1H-pyrazolo[4,3-c]pyridine-3-carboxylic acid (1,3,3-trimethyl-bicyclo[2.2.1]hept-2-yl)-amide], the IC50 [1] is reported as 100 nM, the inhibition at 0.2 µM [2, 4] is reported as 44% and the “CB1 Receptor Functional Activity (change in functional activity, CRE β-gal)” value [3] is reported as 45%.
CC(=O)N1C/C(=C\c2ccc(F)cc2)c2c(c(C(=O)N(C(C)=O)N3CCCCC3)nn2-c2ccc(Cl)cc2Cl)C1 [Cpd 134, (7E)-5-acetyl-1-(2,4-dichloro-phenyl)-7-(4-fluoro-benzylidene)-4,5,6,7-tetrahydro-1H-pyrazolo[4,3-c]pyridine-3-carboxylic acid acetyl-piperidin-1-yl-amide] showed an inhibition at 0.2 µM [1] of 26%, an inhibition at 0.2 µM [2] of 50% and an EC50 [3] of 20 nM.
Work on COc1ccc(/C=C2\CN(C(=O)OC(C)(C)C)Cc3c(C(=O)N[C@H](C)c4ccccc4)nn(-c4ccc(Cl)cc4Cl)c32)cc1 [Cpd 35, (7E)-1-(2,4-dichloro-phenyl)-7-(4-methoxy-benzylidene)-3-[(1R)-1-phenyl-ethylcarbamoyl]-1,4,6,7-tetrahydro-pyrazolo[4,3-c]pyridine-5-carboxylic acid tert-butyl ester] yielded an inhibition at 0.2 µM [1] of 27%, an IC50 [2] of 20 nM and an EC50 [3] of 4 nM.
For O=C(NN1CC2CCCC2C1)c1nn(-c2ccc(Cl)cc2Cl)c2c1CNC/C2=C\c1ccc(F)cc1 (stereo not drawn) [Cpd 90, (7E)-1-(2,4-dichloro-phenyl)-7-(4-fluoro-benzylidene)-4,5,6,7-tetrahydro-1H-pyrazolo[4,3-c]pyridine-3-carboxylic acid (hexahydro-cyclopenta[c]pyrrol-2-yl)-amide], the inhibition at 0.2 µM [1] was 15%, the IC50 [2] was 30 nM and the EC50 [3] was 8 nM.
